Assay results: patent US9745285B2, “Heteroaryl substituted pyrazoles” (BAYER PHARMA AKTIENGESELLSCHAFT, priority 2013, dated 2017)

Key:
[1] = biological target: T1, catalytic domain of human Bub1 (amino acids 704-1085) (Homo sapiens, UniProt O43683); assay: Bub1 kinase assay (TR-FRET); format: biochemical; settings: 10 μM ATP, 1 μM peptide substrate, median value, read-out: Biological Assay 1: Bub1 kinase assay median IC50
T1 construct: catalytic domain of human Bub1 (amino acids 704-1085); His6 (N); made in house; host or cells: Hi5 insect cells
Excerpt: Bub1-inhibitory activities of compounds described in the present invention were quantified using a time-resolved fluorescence energy transfer (TR-FRET) kinase assay which measures phosphorylation of the synthetic peptide Biotin-Ahx-VLLPKKSFAEPG (C-terminus in amide form), purchased from e.g. Biosyntan (Berlin, Germany) by the (recombinant) catalytic domain of human Bub1 (amino acids 704-1085), expressed in Hi5 insect cells with an N-terminal His6-tag and purified by affinity—(Ni-NTA) and size exclusion chromatography.
In a typical assay 11 different concentrations of each compound (0.1 nM, 0.33 nM, 1.1 nM, 3.8 nM, 13 nM, 44 nM, 0.15 μM, 0.51 μM, 1.7 μM, 5.9 μM and 20 μM) were tested in duplicate within the same microtiter plate. To this end, 100-fold concentrated compound solutions (in DMSO) were previously prepared by serial dilution (1:3.4) of 2 mM stocks in a clear low volume 384-well source microtiter plate (Greiner Bio-One, Frickenhausen, Germany), from which 50 nL of compounds were transferred into a black low volume test microtiter plate from the same supplier. Subsequently, 2 μL of Bub1 (the final concentration of Bub1 was adjusted depending on the activity of the enzyme lot in order to be within the linear dynamic range of the assay: typically 200 ng/mL were used) in aqueous assay buffer [50 mM Tris/HCl pH 7.5, 10 mM magnesium chloride (MgCl2), 200 mM potassium chloride (KCl), 1.0 mM dithiothreitol (DTT), 0.1 mM sodium orthovanadate, 1% (v/v) glycerol, 0.01% (w/v) bovine serum albumine (BSA), 0.005% (v/v) Trition X-100 (Sigma), 1× Complete EDTA-free protease inhibitor mixture (Roche)] were added to the compounds in the test plate and the mixture was incubated for 15 min at 22° C. to allow pre-equilibration of the putative enzyme-inhibitor complexes before the start of the kinase reaction, which was initiated by the addition of 3 μL 1.67-fold concentrated solution (in assay buffer) of adenosine-triphosphate (ATP, 10 μM final concentration) and peptide substrate (1 μM final concentration). […] Subsequently, the amount of product was evaluated by measurement of the resonance energy transfer from the Eu-chelate-antibody complex recognizing the Phosphoserine residue to the streptavidin-XL665 bound to the biotin moiety of the peptide. To this end, the fluorescence emissions at 620 nm and 665 nm after excitation at 330-350 nm were measured in a TR-FRET plate reader, e.g. a Rubystar or Pherastar (both from BMG Labtechnologies, Offenburg, Germany) or a Viewlux (Perkin-Elmer) and the ratio of the emissions (665 nm/622 nm) was taken as indicator for the amount of phosphorylated substrate. […] IC50 values were calculated by fitting the normalized inhibition data to a 4-parameter logistic equation (Minimum, Maximum, IC50, Hill; Y=Max+(Min−Max)/(1+(X/IC50)Hill)).

[2] = tested on: HeLa human cervical cancer cell line; assay: Proliferation assay (HeLa cell line, crystal violet); format: cell-based; settings: 96 h, HeLa cells, 4 days incubation, crystal violet staining, median value, read-out: Biological Assay 2: Proliferation assay (HeLa cell line) median IC50
Protocol: Cultivated tumor cells (cells were ordered from ATCC) were plated at a density of 3000 cells/well in a 96-well multititer plate in 200 μL of growth medium supplemented 10% fetal calf serum. After 24 hours, the cells of one plate (zero-point plate) were stained with crystal violet (see below), while the medium of the other plates was replaced by fresh culture medium (200 μL), to which the test substances were added in various concentrations (0 μM, as well as in the range of 0.001-10 μM; the final concentration of the solvent dimethyl sulfoxide was 0.5%). The cells were incubated for 4 days in the presence of test substances. Cell proliferation was determined by staining the cells with crystal violet: the cells were fixed by adding 20 μL/measuring point of an 11% glutaric aldehyde solution for 15 minutes at room temperature. After three washing cycles of the fixed cells with water, the plates were dried at room temperature. The cells were stained by adding 100 μL/measuring point of a 0.1% crystal violet solution (pH 3.0). […] Absorption was determined by photometry at a wavelength of 595 nm.
The change of cell number, in percent, was calculated by normalization of the measured values to the absorption values of the zero-point plate (=0%) and the absorption of the untreated (0 μm) cells (=100%). The IC50 values were determined by means of a 4 parameter fit.

T1 sequence (O43683 704-1085): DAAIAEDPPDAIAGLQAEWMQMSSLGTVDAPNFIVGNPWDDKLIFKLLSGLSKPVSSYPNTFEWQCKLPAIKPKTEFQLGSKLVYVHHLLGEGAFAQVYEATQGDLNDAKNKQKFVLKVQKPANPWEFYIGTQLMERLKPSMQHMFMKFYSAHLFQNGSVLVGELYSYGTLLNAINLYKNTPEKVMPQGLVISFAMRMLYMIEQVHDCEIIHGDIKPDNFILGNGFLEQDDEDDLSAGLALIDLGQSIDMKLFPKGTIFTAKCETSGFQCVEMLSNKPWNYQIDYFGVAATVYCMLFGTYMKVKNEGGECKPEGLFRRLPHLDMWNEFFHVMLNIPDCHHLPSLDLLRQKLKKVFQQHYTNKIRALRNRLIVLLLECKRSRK

Row | IC50 [1] [nM] | IC50 [2] [nM] | Compound
1 | 2100 |  | CCOC(=O)c1cnccc1Nc1nc(-c2nn(Cc3nnc(C)o3)c(C3CC3)c2C)ncc1OC [Example 2-4-2, ethyl 4-[(2-{5-cyclopropyl-4-methyl-1-[(5-methyl-1,3,4-oxadiazol-2-yl)methyl]-1H-pyrazol-3-yl}-5-methoxypyrimidin-4-yl)amino]pyridine-3-carboxylate]
2 | 9 |  | COc1cnc(-c2nn(Cc3c(Cl)cnn3C)c(C3CC3)c2C)nc1Nc1ccncc1 [Example 2-1-1, 2-{1-[(4-chloro-1-methyl-1H-pyrazol-5-yl)methyl]-5-cyclopropyl-4-methyl-1H-pyrazol-3-yl}-5-methoxy-N-(pyridin-4-yl)pyrimidin-4-amine]
3 | 680 | > 10000 | COc1cnc(-c2nn(Cc3nnc(C)o3)c(C3CC3)c2C)nc1Nc1ccncc1C(N)=O [Example 2-5-1, 4-[(2-{5-cyclopropyl-4-methyl-1-[(5-methyl-1,3,4-oxadiazol-2-yl)methyl]-1H-pyrazol-3-yl}-5-methoxypyrimidin-4-yl)amino]pyridine-3-carboxamide]
4 | 16 | > 10000 | COc1cnc(-c2nn(Cc3c(C)noc3C)c(C3CC3)c2C)nc1Nc1ccncc1C(N)=O [Example 2-2-1, 4-[(2-{5-cyclopropyl-1-[(3,5-dimethyl-1,2-oxazol-4-yl)methyl]-4-methyl-1H-pyrazol-3-yl}-5-methoxypyrimidin-4-yl)amino]nicotinamide]
